Earlier results on 1 compound are cited in patent US7501409B2, “Preparations for oral administration” (Mitsubishi Tanabe Pharma Corporation, priority 2000, dated 2009).

Molecules are shown by their SMILES. Counter-ions that a name gives are not always drawn. Like-named read-outs stand apart in the source and are kept apart here.

In the case of `CCCc1nn(C)c2c(=O)[nH]c(-c3cc(S(=O)(=O)N4CCN(C)CC4)ccc3OCC)nc12` [sildenafil citrate], the solubility – broadly, how much of the substance goes into solution per volume – reads like this: (pH 1.2) 2520 µg/mL; (pH 6.8) 110 µg/mL.
